Measured values published in patent publication US7763615B2, “Ecteinascidin analogs for use as antitumour agents” (priority 2001, dated 2010).
Read-outs that look alike come from different tables or passages of the source.

Columns and labels:
Assay in all cases: cells
Format in all cases: cell-based
SK-BR3 = details: Homo sapiens
Procedure, shortened: (§1)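 Seeding density 5×10^3 cells/well; attachment 18 h in drug-free medium; exposure 48 h, 10 to 10^−8 μg/ml. Fixation cold TCA 60 min at 4° C, SRB 10 min, absorbance 490 nm.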

DU145 = details: Homo sapiens
Procedure, shortened: as §1

LOVO = details: Homo sapiens
Procedure, shortened: as §1

PANC-1 = details: Homo sapiens
Procedure, shortened: as §1

LNCAP = details: Homo sapiens
Procedure, shortened: as §1

IGROV = details: Homo sapiens
Procedure, shortened: as §1

HELA = details: for GI50 / CC50: Homo sapiens
Procedure, shortened: as §1

K562 = details: Homo sapiens
Procedure, shortened: as §1

MEL-28 = details: Homo sapiens
Procedure, shortened: as §1

A549 = details: for GI50: read-out: GI50; for IC (TGI): read-out: TGI
Procedure, shortened: as §1

HELA-APL = details: for GI50 / CC50: Homo sapiens
Procedure, shortened: as §1

HT29 = system: HT29
Procedure, shortened: as §1

LOVO-DOX = details: Homo sapiens
Procedure, shortened: as §1

IGROV-ET = details: Homo sapiens
Procedure, shortened: as §1

[1] = SK-BR-3, 48 h, SK-BR3, 48 hours exposure, SRB
[2] = SK-BR-3, SK-BR3, 48 hours exposure, SRB, read-out: LC50 (the source's name)
[3] = DU-145, 48 h, DU145, 48 hours exposure, SRB
[4] = DU-145, DU145, 48 hours exposure, SRB, read-out: LC50 (the source's name)
[5] = LoVo, 48 h, 48 hours exposure, SRB
[6] = LOVO, 48 hours exposure, SRB, read-out: LC50 (the source's name)
[7] = PANC-1, 48 h, PANC-1, 48 hours exposure, SRB
[8] = PANC-1, 48 hours exposure, SRB, read-out: LC50 (the source's name)
[9] = LNCaP, 48 h, 48 hours exposure, SRB
[10] = LNCAP, 48 hours exposure, SRB, read-out: LC50 (the source's name)
[11] = 48 hours exposure, SRB, read-out: LC50 (the source's name)
[12] = HELA, 48 hours exposure, SRB, read-out: LC50 (the source's name)
[13] = K562, 48 h, K562, 48 hours exposure, SRB
[14] = K562, 48 hours exposure, SRB, read-out: LC50 (the source's name)
[15] = SK-MEL-28, 48 h, MEL-28, 48 hours exposure, SRB
[16] = SK-MEL-28, MEL-28, 48 hours exposure, SRB, read-out: LC50 (the source's name)
[17] = HELA-APL, 48 hours exposure, SRB
[18] = HELA-APL, 48 hours exposure, SRB, read-out: LC50 (the source's name)
[19] = 48 h, LOVO-DOX, 48 hours exposure, SRB
[20] = LOVO-DOX, 48 hours exposure, SRB, read-out: LC50 (the source's name)
[21] = 48 h, IGROV-ET, 48 hours exposure, SRB
[22] = IGROV-ET, 48 hours exposure, SRB, read-out: LC50 (the source's name)
[23] = Homo sapiens, A549, 48 h, A549, 48 hours exposure, SRB
[24] = Homo sapiens, HT-29, 48 h, HT29, 48 hours exposure, SRB

## COc1c(C)cc2c(c1O)[C@@H]1C3[C@@H]4SC[C@]5(C(=O)COC[C@@H](c6c7c(c(C)c(OC(C)=O)c64)OCO7)N3[C@@H](C#N)[C@H](C2)N1C)c1[nH]c2ccccc2c1CCN5C (stereo partly drawn) [Compound 14]
SK-BR3; [1]
  GI50: 217 nM
  IC (TGI): 537 nM
SK-BR3; [2]
  CC50: 1620 nM
DU145; [3]
  GI50: 94.6 nM
  IC (TGI): 1390 nM
DU145; [4]
  CC50: 12900 nM
LOVO; [5]
  GI50: 141 nM
  IC (TGI): 393 nM
LOVO; [6]
  CC50: 1100 nM
PANC-1; [7]
  GI50: 276 nM
  IC (TGI): 825 nM
PANC-1; [8]
  CC50: 12900 nM
LNCAP; [9]
  GI50: 61.2 nM
  IC (TGI): 177 nM
LNCAP; [10]
  CC50: 535 nM
IGROV; 48 h, 48 hours exposure, SRB
  GI50: 226 nM
  IC (TGI): 744 nM
IGROV; [11]
  CC50: 5140 nM
HELA; HELA, 48 hours exposure, SRB
  TGI: 3.10E−07 Molar
  GI50: 114 nM
HELA; [12]
  CC50: 810 nM
K562; [13]
  GI50: 44.7 nM
  IC (TGI): 174 nM
K562; [14]
  CC50: 1290 nM
MEL-28; [15]
  GI50: 198 nM
  IC (TGI): 519 nM
MEL-28; [16]
  CC50: 2370 nM
A549; A549, 48 hours exposure, SRB
  TGI: 8.25E−07 Molar
  GI50: 264 nM
A549; A549, 48 hours exposure, SRB, read-out: LC50 (the source's name)
  CC50: 6860 nM
HELA-APL; [17]
  TGI: 4.88E−07 Molar
HELA-APL; 48 h
  GI50: 243 nM
HELA-APL; [18]
  CC50: 980 nM
HT29; HT29, 48 hours exposure, SRB
  GI50: 418 nM
  TGI: 1.59E−06 Molar
HT29; HT29, 48 hours exposure, SRB, read-out: LC50 (the source's name)
  CC50: 12900 nM
LOVO-DOX; [19]
  GI50: 584 nM
  IC (TGI): 3840 nM
LOVO-DOX; [20]
  CC50: 12900 nM
IGROV-ET; [21]
  GI50: 569 nM
  IC (TGI): 1300 nM
IGROV-ET; [22]
  CC50: 12900 nM

## COc1c(C)cc2c(c1O)[C@@H]1C3[C@@H]4SC[C@]5(NCCc6c5[nH]c5ccccc65)C(=O)COC[C@@H](c5c6c(c(C)c(OC(=O)C(F)(F)C(F)(F)C(F)(F)F)c54)OCO6)N3[C@@H](C#N)[C@H](C2)N1C (stereo partly drawn) [Compound 51]
SK-BR3; [1]
  GI50: 39.8 nM
  IC (TGI): 99.3 nM
SK-BR3; SK-BR-3, 48 h, read-out: LC50
  CC50: 3110 nM
DU145; [3]
  GI50: 48.3 nM
  IC (TGI): 323 nM
DU145; DU-145, 48 h, read-out: LC50
  CC50: 11200 nM
LOVO; [5]
  GI50: 21.1 nM
  IC (TGI): 38.8 nM
LOVO; LoVo, 48 h, read-out: LC50
  CC50: 71 nM
PANC-1; [7]
  GI50: 41.9 nM
  IC (TGI): 133 nM
PANC-1; PANC-1, 48 h, read-out: LC50
  CC50: 2000 nM
LNCAP; [9]
  GI50: 13.1 nM
  IC (TGI): 27 nM
LNCAP; LNCaP, 48 h, read-out: LC50
  CC50: 54.8 nM
IGROV; 48 h, 48 hours exposure, SRB
  GI50: 32.3 nM
  IC (TGI): 63.3 nM
IGROV; 48 h, read-out: LC50
  CC50: 3550 nM
HELA; HELA, 48 hours exposure, SRB
  TGI: 4.85E−08 Molar
  GI50: 24 nM
HELA; HeLa, 48 h, read-out: LC50
  CC50: 98 nM
K562; [13]
  GI50: 16.5 nM
  IC (TGI): 46.2 nM
K562; K562, 48 h, read-out: LC50
  CC50: 114 nM
MEL-28; [15]
  GI50: 28.4 nM
  IC (TGI): 50.3 nM
MEL-28; SK-MEL-28, 48 h, read-out: LC50
  CC50: 89.3 nM
A549; [23]
  GI50: 26.7 nM
  IC (TGI): 61.1 nM
A549; Homo sapiens, A549, 48 h, read-out: LC50, A549, 48 hours exposure, SRB
  CC50: 1290 nM
HELA-APL; [17]
  TGI: 4.97E−08 Molar
HELA-APL; 48 h
  GI50: 29.1 nM
HELA-APL; 48 h, read-out: LC50
  CC50: 84.6 nM
HT29; [24]
  GI50: 38.2 nM
  IC (TGI): 1310 nM
HT29; Homo sapiens, HT-29, 48 h, read-out: LC50, HT29, 48 hours exposure, SRB
  CC50: 11100 nM
LOVO-DOX; [19]
  GI50: 381 nM
  IC (TGI): 3090 nM
LOVO-DOX; 48 h, read-out: LC50
  CC50: 11200 nM
IGROV-ET; [21]
  GI50: 263 nM
  IC (TGI): 7470 nM
IGROV-ET; 48 h, read-out: LC50
  CC50: 11200 nM

## COc1c(C)cc2c(c1O)[C@@H]1C3[C@@H]4SC[C@]5(NCCc6c5[nH]c5ccccc65)C(=O)COC[C@@H](c5c6c(c(C)c(OC(=O)OC(C)(C)C)c54)OCO6)N3[C@@H](C#N)[C@H](C2)N1C (stereo partly drawn) [Compound 57]
SK-BR3; [1]
  GI50: 67.6 nM
  IC (TGI): 313 nM
SK-BR3; [2]
  CC50: 7990 nM
DU145; [3]
  GI50: 47.7 nM
  IC (TGI): 1840 nM
DU145; [4]
  CC50: 12200 nM
LOVO; [5]
  GI50: 73 nM
  IC (TGI): 257 nM
LOVO; [6]
  CC50: 905 nM
PANC-1; [7]
  GI50: 113 nM
  IC (TGI): 662 nM
PANC-1; [8]
  CC50: 12200 nM
LNCAP; [9]
  GI50: 33.3 nM
  IC (TGI): 71.7 nM
LNCAP; [10]
  CC50: 23.2 nM
IGROV; 48 h, 48 hours exposure, SRB
  GI50: 71.8 nM
  IC (TGI): 460 nM
IGROV; [11]
  CC50: 7430 nM
HELA; HELA, 48 hours exposure, SRB
  TGI: 1.46E−07 Molar
  GI50: 43.7 nM
HELA; [12]
  CC50: 652 nM
K562; [13]
  GI50: 47.7 nM
  IC (TGI): 466 nM
K562; [14]
  CC50: 12200 nM
MEL-28; [15]
  GI50: 64.7 nM
  IC (TGI): 209 nM
MEL-28; [16]
  CC50: 662 nM
A549; [23]
  GI50: 103 nM
  IC (TGI): 607 nM
A549; Homo sapiens, A549, 48 h, A549, 48 hours exposure, SRB, read-out: LC50 (the source's name)
  CC50: 12200 nM
HELA-APL; [17]
  TGI: 2.03E−07 Molar
HELA-APL; 48 h
  GI50: 61.4 nM
HELA-APL; [18]
  CC50: 850 nM
HT29; [24]
  GI50: 165 nM
  IC (TGI): 1410 nM
HT29; Homo sapiens, HT-29, 48 h, HT29, 48 hours exposure, SRB, read-out: LC50 (the source's name)
  CC50: 12200 nM
LOVO-DOX; [19]
  GI50: 487 nM
  IC (TGI): 6700 nM
LOVO-DOX; [20]
  CC50: 12200 nM
IGROV-ET; [21]
  GI50: 394 nM
  IC (TGI): 1150 nM
IGROV-ET; [22]
  CC50: 12200 nM
